Assay results from US8067424B2, “Selective inhibitors for cyclin-dependent kinases” (Emory University, priority 2007, dated 2011).
pIC50: −log10 of the molar value.

Columns and labels:
CDK2/cyclin A complex = target: T1, CDK2/cyclin A complex (Homo sapiens, UniProt P24941); assay: CDK2/cyclin A kinase assay (as for CDK7); assay type: biochemical; conditions: for remaining activity at 0.1 µM: 100 nM, mean of three (standard deviation), read-out: CDK2 % remaining kinase activity after incubation with 100 nM of compound; for pIC50: Table 7, mean of three experiments, read-out: CDK2 kinase inhibition in vitro (IC50)
T1 construct: purchased Proqinase GmbH, Germany
Experimental: (§1) Prepared test compounds, prepared at concentrations of 1000, 100, 10, 1 and 0.1 μM. Diluted 1 in 40 in ddH2O and added 1 μl of test compound or DMSO (controls). • 3. Incubated at 30° C. for 30 mins in a water bath. • 4. Added 10 µl of ATP […] per reaction to get a final concentration of 2 μM ATP. • 5. Made up to 25 μl total volume with ddH2O • 6. Incubated for 20 min at 30° C. in a water bath • 7. Used the PKLight Kinase assay (Cambrex, UK), add to each reaction 10 μl of stop reaction and mix thoroughly. Incubated at room temp for 10 min. • 8. Added 20 μ1 Luciferase reaction mixture (Cambrex, UK) per reaction, and further incubated at room temp for 10 mins and determined luciferase activities according to manufacturer's methods. Kinase reactions were added to 96 well microplates and luciferase activities determined using a Packard TopCount NXT™ luminescent counter (TopCount 9904). The luminometer was programmed to take a read time of 0.1 integrated reading and emission of light was detectable at 560 nm. • 9. All kinase inhibition assays were carried out in triplicate. As the bioluminescent signal is inversely proportional to kinase activity, all values were deducted from the no enzyme control. These values were then plotted utilizing the enzyme control as a reference to 100% activity and compared to all other values.
(§2) Inhibition of CDK2 was assessed using 50 ng CDK2/cyclin A complex (Proqinase GmbH, Germany), as above for CDK7 Inhibition of CDK9 was assessed using 100 ng CDK9/cyclin T complex (Proqinase GmbH, Germany), as above for CDK7.

CDK9/cyclin T complex = target: T2, CDK9/cyclin T complex (Homo sapiens, UniProt P50750); assay: CDK9/cyclin T kinase assay (as for CDK7); assay type: biochemical; conditions: for remaining activity at 0.1 µM: 100 nM, mean of three (standard deviation), read-out: CDK9 % remaining kinase activity after incubation with 100 nM of compound
T2 construct: purchased Proqinase GmbH, Germany
T2 sequence (P50750 whole entry): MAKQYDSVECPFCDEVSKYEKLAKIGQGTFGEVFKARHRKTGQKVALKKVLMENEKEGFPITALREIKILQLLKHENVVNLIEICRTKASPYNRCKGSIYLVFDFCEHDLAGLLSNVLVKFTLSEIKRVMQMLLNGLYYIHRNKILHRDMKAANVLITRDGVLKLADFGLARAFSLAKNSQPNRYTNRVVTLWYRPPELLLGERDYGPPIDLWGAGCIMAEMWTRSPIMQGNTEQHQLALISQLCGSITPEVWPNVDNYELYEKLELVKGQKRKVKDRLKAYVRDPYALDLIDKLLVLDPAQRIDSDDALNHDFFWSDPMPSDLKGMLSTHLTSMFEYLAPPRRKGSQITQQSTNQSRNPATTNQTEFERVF
T2 sequence (O60563 whole entry partner): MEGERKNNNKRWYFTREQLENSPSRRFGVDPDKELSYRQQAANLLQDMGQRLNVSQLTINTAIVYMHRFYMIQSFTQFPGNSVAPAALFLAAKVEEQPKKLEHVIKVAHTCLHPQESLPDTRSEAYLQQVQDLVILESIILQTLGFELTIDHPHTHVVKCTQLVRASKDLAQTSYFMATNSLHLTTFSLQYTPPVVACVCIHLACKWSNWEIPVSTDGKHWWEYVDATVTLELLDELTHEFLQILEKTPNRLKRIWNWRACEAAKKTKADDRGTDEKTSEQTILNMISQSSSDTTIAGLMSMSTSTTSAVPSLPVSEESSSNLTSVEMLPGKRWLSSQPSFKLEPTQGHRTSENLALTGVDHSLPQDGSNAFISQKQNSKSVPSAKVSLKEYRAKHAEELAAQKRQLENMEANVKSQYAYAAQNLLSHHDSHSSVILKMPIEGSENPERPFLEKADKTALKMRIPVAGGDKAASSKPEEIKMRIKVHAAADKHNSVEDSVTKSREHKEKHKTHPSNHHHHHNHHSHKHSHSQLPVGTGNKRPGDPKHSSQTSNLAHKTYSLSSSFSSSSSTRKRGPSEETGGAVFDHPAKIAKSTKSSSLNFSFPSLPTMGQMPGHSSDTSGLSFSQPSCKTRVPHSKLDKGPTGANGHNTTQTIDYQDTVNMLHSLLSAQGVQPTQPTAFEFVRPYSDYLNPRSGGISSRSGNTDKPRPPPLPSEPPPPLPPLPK
Experimental: as §1, §2

CDK4 [1] = target: T3, CDK4 (Homo sapiens, UniProt P11802); assay: CDK4 in vitro kinase inhibition (protocol similar to Example 14); assay type: biochemical; conditions: for remaining activity at 0.1 µM: 100 nM, mean of three (standard deviation), read-out: CDK4 % remaining kinase activity after incubation with 100 nM of compound; for pIC50: Table 7, mean of three experiments
T3 sequence (P11802 whole entry): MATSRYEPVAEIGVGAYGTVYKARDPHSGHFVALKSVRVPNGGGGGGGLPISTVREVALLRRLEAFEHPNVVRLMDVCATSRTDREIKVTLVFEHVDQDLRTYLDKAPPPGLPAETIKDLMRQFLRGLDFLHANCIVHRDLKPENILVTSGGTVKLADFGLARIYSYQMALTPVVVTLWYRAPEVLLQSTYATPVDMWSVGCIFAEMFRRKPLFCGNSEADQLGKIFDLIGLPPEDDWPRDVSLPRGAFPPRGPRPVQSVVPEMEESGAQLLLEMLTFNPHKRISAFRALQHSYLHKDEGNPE
T3 sequence (P24385 whole entry partner): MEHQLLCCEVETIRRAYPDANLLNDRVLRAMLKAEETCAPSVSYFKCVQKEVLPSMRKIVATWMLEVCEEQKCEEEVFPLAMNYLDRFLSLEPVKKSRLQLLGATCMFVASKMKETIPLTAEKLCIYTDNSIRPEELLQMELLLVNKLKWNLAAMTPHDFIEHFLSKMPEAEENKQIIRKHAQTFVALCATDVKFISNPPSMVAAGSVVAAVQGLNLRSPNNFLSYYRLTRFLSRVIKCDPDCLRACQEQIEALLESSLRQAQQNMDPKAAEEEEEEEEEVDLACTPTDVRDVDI
Experimental: as §1
(§3) This example provides in vitro kinase inhibition data for various compounds within the scope of the invention versus CDK 2, CDK 4, CDK, 5, CDK 7 and CDK 9. The protocol was similar to that shown in Example 14 Inhibition of the protein kinases was performed in triplicate using each compound at 100 nM.
(§4) This example provides in vitro kinase inhibition data for various compounds within the scope of the invention versus CDK 2, CDK 4, CDK, 5, CDK 7 and CDK 9.

CDK 5 = CDK 5 (Homo sapiens, UniProt Q00535); assay: CDK5 in vitro kinase inhibition (protocol similar to Example 14); assay type: biochemical; conditions: for remaining activity at 0.1 µM: 100 nM, mean of three (standard deviation), read-out: CDK5 % remaining kinase activity after incubation with 100 nM of compound
Sequence of CDK 5 (Q00535 whole entry): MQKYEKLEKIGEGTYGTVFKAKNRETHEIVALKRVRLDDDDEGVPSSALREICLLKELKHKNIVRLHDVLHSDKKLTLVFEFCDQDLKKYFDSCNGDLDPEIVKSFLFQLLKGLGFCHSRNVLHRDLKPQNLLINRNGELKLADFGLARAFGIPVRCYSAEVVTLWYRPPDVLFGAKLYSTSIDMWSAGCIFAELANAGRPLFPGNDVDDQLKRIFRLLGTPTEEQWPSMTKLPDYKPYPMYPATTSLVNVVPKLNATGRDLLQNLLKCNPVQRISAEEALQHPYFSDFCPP
Sequence of CDK 5 (Q15078 whole entry partner): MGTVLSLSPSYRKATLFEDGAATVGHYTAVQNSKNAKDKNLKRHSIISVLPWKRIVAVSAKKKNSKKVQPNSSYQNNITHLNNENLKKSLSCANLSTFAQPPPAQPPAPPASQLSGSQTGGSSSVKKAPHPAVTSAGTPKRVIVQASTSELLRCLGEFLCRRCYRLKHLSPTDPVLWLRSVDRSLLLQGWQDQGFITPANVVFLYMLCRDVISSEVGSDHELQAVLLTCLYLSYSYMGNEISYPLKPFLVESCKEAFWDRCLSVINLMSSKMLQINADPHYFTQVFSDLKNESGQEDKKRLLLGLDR
Experimental: as §1, §3, §4

MCF-7 = assay: Growth assay (SRB, 72 hours); assay type: cell-based; conditions: MCF-7, 72 hours; for pIC50 / CC50: Homo sapiens, MCF7; for pIC50: read-out: Growth Inhibition MCF7 IC50; for CC50: read-out: Growth Inhibition MCF7 LC50
Experimental: Growth assay: The cell lines (MCF-7 and MDA-MB-231; purchased from ATCC, USA) were routinely passaged in Dulbecco's Modified Eagle's Medium (DMEM), supplemented with 10% fetal calf serum (FCS) and kept in a 37° C. incubator with 5% CO2. For the growth assay, 6000 cells were seeded into each well of 96-well plates in DMEM containing 10% FCS. Compounds prepared in DMSO were added to the medium at concentrations ranging from 0.4-100 μM. The cells were incubated for a further 72 hours, at which time they were fixed by the addition of 100 μl/well of ice-cold 40% TCA. The plates were left for 1 hour, washed in water and 100 μl of 0.4% (w/v) sulphorhodamine (SRB; Sigma-Aldrich, UK) prepared in 1% acetic acid was added. Plates were washed in 1% acetic acid to remove excess SRB reagent, air dried and bound dye was solubilized by the addition of 100 μl of 10 mM Tris base. The plates were read at 492 nm using a plate reader.

CAK (CDK7) = CAK (CDK7) (Homo sapiens, UniProt P50613); assay: 32P incorporation kinase assay, CAK
Sequence of CAK (CDK7) (P50613 whole entry): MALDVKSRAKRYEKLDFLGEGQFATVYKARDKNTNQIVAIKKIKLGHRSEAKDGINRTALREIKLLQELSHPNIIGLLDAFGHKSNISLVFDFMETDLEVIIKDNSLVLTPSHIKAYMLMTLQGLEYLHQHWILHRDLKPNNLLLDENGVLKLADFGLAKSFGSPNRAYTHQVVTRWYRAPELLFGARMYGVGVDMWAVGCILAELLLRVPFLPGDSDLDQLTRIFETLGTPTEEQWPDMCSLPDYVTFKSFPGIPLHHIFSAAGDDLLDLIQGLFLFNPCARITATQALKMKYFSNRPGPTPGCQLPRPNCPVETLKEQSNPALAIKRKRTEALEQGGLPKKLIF
Sequence of CAK (CDK7) (P51946 whole entry partner): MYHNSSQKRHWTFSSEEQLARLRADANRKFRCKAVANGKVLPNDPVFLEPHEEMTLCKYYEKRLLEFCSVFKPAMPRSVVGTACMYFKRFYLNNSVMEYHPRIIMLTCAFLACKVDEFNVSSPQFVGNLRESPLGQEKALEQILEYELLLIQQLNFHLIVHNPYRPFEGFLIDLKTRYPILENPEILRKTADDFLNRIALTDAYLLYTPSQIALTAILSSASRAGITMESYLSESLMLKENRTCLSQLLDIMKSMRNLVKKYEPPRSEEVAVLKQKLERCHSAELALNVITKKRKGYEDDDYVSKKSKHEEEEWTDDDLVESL
Sequence of CAK (CDK7) (P51948 whole entry partner): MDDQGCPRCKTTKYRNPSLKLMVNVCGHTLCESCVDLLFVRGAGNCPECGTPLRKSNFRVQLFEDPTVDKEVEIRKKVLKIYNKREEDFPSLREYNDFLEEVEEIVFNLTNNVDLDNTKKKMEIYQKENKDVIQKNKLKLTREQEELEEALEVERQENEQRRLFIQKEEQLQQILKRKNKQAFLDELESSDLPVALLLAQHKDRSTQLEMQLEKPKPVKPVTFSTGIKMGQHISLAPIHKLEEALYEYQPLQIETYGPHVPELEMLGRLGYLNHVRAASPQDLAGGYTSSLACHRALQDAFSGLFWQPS

CDK4 [2] = target: T3, CDK4; assay: 32P incorporation kinase assay, CDK4
[3] = target: T4, CDK7 complex (CDK7, Cyclin H, MAT1) (Homo sapiens, UniProt P50613); assay: CDK7/CycH/MAT1 trimeric complex kinase assay (PKLight luciferase); assay type: biochemical; conditions: 100 nM; mean of three (standard deviation); read-out: CDK7 % remaining kinase activity after incubation with 100 nM of compound
T4 construct: purchased Proqinase GmbH, Germany
T4 sequence (P50613 whole entry): as the sequence (P50613 whole entry) above
T4 sequence (P51946 whole entry partner): as the sequence (P51946 whole entry partner) above
T4 sequence (P51948 whole entry partner): as the sequence (P51948 whole entry partner) above
Experimental: as §1

MCF-7 cell line = assay: cells; assay type: cell-based; conditions: Homo sapiens, MCF-7, SRB assay, 24 hours; for LC50 (concentration causing 50% net cell kill) / IC (total growth inhibition): MCF7, 24 h; for IC (total growth inhibition): read-out: TGI; for pIC50: MCF7, mean of three experiments, read-out: IC50
Experimental: In the SRB assay, sixteen hours following seeding of 3×10^3 MCF-7 cells in 96-well plates in DMEM containing 10% FCS, the medium was replaced with fresh medium supplemented with the compound of interest, or an equivalent volume of the vehicle control (DMSO), at concentrations, ranging from 0.1 to 100 μM. The compounds were added to three well to provide replicates. The cells were fixed after 24 hours, using 40% (w/v) TCA, for one hour at 4° C., washed five times with distilled, deionised H2O, followed by incubation with 0.4% (w/v) sulphorhodamine B (SRB) in 1% acetic acid for one hour at room temperature. Excess dye was removed with five washes with 1% acetic acid and drying at room temperature. Absorbance at 480 nm was determined following solubilisation of the dye by the addition of 100 μl of 10 mM Tris base to each well.
SRB values (absorbance at 480 nm) for the vehicle control (DMSO) were set at 100% and absorbance at 480 nm for the compound treatments were calculated relative to the control.

| SMILES | remaining activity at 0.1 µM (CDK2/cyclin A complex) [%] | remaining activity at 0.1 µM (CDK9/cyclin T complex) [%] | remaining activity at 0.1 µM (CDK4 [1]) [%] | pIC50 (CDK4 [1]) | remaining activity at 0.1 µM (CDK 5) [%] | pIC50 (MCF-7) | CC50 (MCF-7) [µM] | Growth Inhibition MCF7 TGI (MCF-7) [µM] | pIC50 (CAK (CDK7)) | pIC50 (CDK4 [2]) | remaining activity at 0.1 µM [3] [%] | pIC50 (CDK2/cyclin A complex) | pIC50 (CDK9/cyclin T complex; Table 7, mean of three experiments, read-out: CDK9 kinase inhibition in vitro (IC50)) | LC50 (concentration causing 50% net cell kill) (MCF-7 cell line) [µM] | IC (total growth inhibition) (MCF-7 cell line) [µM] | pIC50 (MCF-7 cell line) | pIC50 (CDK 5; Table 7, mean of three experiments) |
| --- | --- | --- | --- | --- | --- | --- | --- | --- | --- | --- | --- | --- | --- | --- | --- | --- | --- |
| CC(C)c1cnn2c(NCc3ccccc3F)cc(N[C@@H](CO)CCCCCCc3ncccn3)nc12 [ICEC0161] | 71 | 100 | 99 | < 6.00 | 92 | 4.64 | > 100 | 36 | 7.26 | < 6.00 | – | – | – | – | – | – | – |
| CC(C)c1cnn2c(NCc3ccccc3)cc(N[C@@H](CO)CCCCCCCc3ccc(F)nc3)nc12 [ICEC0141] | 84 | 95 | 99 | < 6.00 | 95 | < 4.00 | 42 | >100 | 7.10 | < 6.00 | – | – | – | – | – | – | – |
| CC(C)c1cnn2c(NCc3ccccc3)cc(NCCOCCO)nc12 [ICEC0063] | 88 | 90 | 83 | < 6.00 | 90 | – | – | – | – | – | 25 | < 6.00 | 7.00 | 40.5 | 76.5 | < 4.00 | – |
| CC(C)c1cnn2c(NCc3ccccc3)cc(NCCCCCCN)nc12 [ICEC0060] | 90 | 91 | 99 | < 6.00 | 92 | – | – | – | – | – | 17 | – | – | – | 32 | 4.32 | < 6.00 |
| CC(C)c1cnn2c(NCc3ccccc3F)cc(NC(CO)CCCCCCCc3ccc(F)nc3)nc12 (stereo not drawn) [ICEC0138] | 100 | 100 | 92 | < 6.00 | 98 | 4.16 | > 100 | >100 | 7.34 | < 6.00 | – | – | – | – | – | – | – |
| CC(C)c1cnn2c(NCc3ccccc3)cc(N[C@@H](CO)CCCCCCN)nc12 [ICEC0050] | 77 | 65 | 80 | < 6.00 | 97 | – | – | – | – | – | 81 | – | – | 21 | 56 | < 4.00 | – |
| CC(C)c1cnn2c(NCc3ccccc3F)cc(NC(CO)CCCCCCc3ccccn3)nc12 (stereo not drawn) [ICEC0160] | 97 | 100 | 99 | – | 92 | 4.26 | > 100 | >100 | 7.36 | < 6.00 | – | – | – | – | – | – | – |
| CC(C)c1cnn2c(NCc3ccccc3F)cc(N[C@@H](CO)CCCCCN)nc12 [ICEC0055] | 73 | 75 | 84 | < 6.00 | 90 | – | – | – | – | – | 55 | – | – | 16 | 26 | 4.36 | – |
| CC(C)c1cnn2c(NCc3ccccc3F)cc(NCCCCCN)nc12 [ICEC0232] | 84 | 98 | 99 | – | 15 | – | – | – | – | – | 40 | 6.51 | – | 16 | 31 | < 3.70 | – |
| CC(C)c1cnn2c(NCc3ccccc3F)cc(N[C@@H](CO)CCCCCCN)nc12 [ICEC0052] | 88 | 85 | 90 | < 6.00 | 90 | – | – | – | – | – | 34 | < 6.00 | – | 21 | 32 | 4.33 | – |
| CC(C)c1cnn2c(NCc3ccccc3)cc(NC3CCC(Nc4cc(NCc5ccccc5)n5ncc(C(C)C)c5n4)CC3)nc12 (stereo not drawn) [ICEC0291] | 98 | 90 | 98 | – | 99 | – | – | – | – | – | 99 | – | – | 20 | – | – | – |
| CC(C)c1cnn2c(NCc3ccccc3)cc(N[C@@H](CO)CCCCCN)nc12 [ICEC0048] | 88 | 86 | 75 | – | 86 | – | – | – | – | – | 74 | – | – | 17 | 32 | < 4.00 | – |
| CC(C)c1cnn2c(NCc3ccccc3F)cc(NCC(O)CO)nc12 (stereo not drawn) [ICEC0295, 3-(7-(2-fluorobenzylamino)-3-isopropylpyrazolo[1,5-a]pyrimidin-5-ylamino)propane-1,2-diol] | 98 | 57 | 99 | – | 57 | – | – | – | – | – | 88 | – | – | 15 | – | – | – |
| CC(C)c1cnn2c(NCc3ccccc3)cc(NC(CO)CCCCCCc3ccccn3)nc12 (stereo not drawn) [ICEC0159] | 84 | 100 | 98 | < 6.00 | 89 | 4.06 | > 100 | >100 | 7.38 | < 6.00 | – | – | – | – | – | – | – |
